{"source": "patent US20250360111A1", "about": "“COMPOSITIONS OF AGPAT4 INHIBITORS AND METHODS OF USING THEREOF TO TREAT CANCER” (The University of Hong Kong, priority 2024, published 2025)", "key": {"advanced HCC": {"system": "advanced HCC", "conditions": "advanced unresectable HCC, cited from earlier work"}, "MHCC97L cells": {"system": "MHCC97L cells", "assay": "Orthotopic metastasis model, MHCC97L cells with AGPAT4 shRNA", "format": "in vivo, BALB/c nude mice", "conditions": "MHCC97L cells injected intrahepatically, n=7 per group", "procedure": "Metastasis was assessed by orthotopic injection into the liver to observe extrahepatic metastasis to the lungs. […] Six to eight weeks after implantation, mice were administered 100 mg/kg D-luciferin (Gold Biotechnology) via peritoneal injection 5 min before bioluminescence imaging (IV IS 100 Imaging System, Xenogen). The livers and lungs were harvested for ex vivo imaging and histological analyses. The metastatic nodules in the lungs were counted."}, "HCC cells (Huh7)": {"system": "HCC cells (Huh7)", "assay": "Rescue and PA addition experiments: migration, invasion, limiting dilution spheroid formation, western blot", "format": "cell-based, human", "conditions": "exogenous PA added to HCC cells", "procedure": "Cells at limited dilutions were cultured in 100 μL serum-free DM E M/F12 medium (Invitrogen) supplemented with 20 ng/mL human recombinant epidermal growth factor (Sigma-Aldrich), 10 ng/mL human recombinant basic fibroblast growth factor (Sigma-Aldrich), […] (Sigma-Aldrich), B27 (1:50; Invitrogen), 500 U/mL penicillin, […] (Invitrogen), and 0.25% methylcellulose (Sigma-Aldrich). Cells were cultured in suspension in polyHEMA-coated 96-well plates. The cells were replenished with 30 μL of the supplemented medium every second day. The wells were monitored for sphere formation for 7-10 days. The tumor-initiating cell frequency was calculated using extreme limiting dilution analysis.\nCells were lysed in RIPA buffer (Cell Signalling Technology) containing a complete protease inhibitor cocktail (Roche) and PMSF (Sigma-Aldrich). Protein lysates were quantified and resolved on an SDS-PAGE gel, transferred onto a PV DF membrane (Pall), immunoblotted with a primary antibody, and incubated with a secondary antibody. The antibody signal was detected using the A mersham ECL Select Western Blotting Detection Reagent (GE Healthcare). […]"}, "AGPAT4": {"target": "T1, AGPAT4 (Homo sapiens, UniProt Q9NRZ5, C228A)", "T1 construct": "The open reading frame (ORF) encoding the mRNA of AGPAT4 was cloned into the pDONR-221 donor vector; expressed in transfected cells; host or cells: Huh7", "T1 sequence (Q9NRZ5 1-378 C228A)": "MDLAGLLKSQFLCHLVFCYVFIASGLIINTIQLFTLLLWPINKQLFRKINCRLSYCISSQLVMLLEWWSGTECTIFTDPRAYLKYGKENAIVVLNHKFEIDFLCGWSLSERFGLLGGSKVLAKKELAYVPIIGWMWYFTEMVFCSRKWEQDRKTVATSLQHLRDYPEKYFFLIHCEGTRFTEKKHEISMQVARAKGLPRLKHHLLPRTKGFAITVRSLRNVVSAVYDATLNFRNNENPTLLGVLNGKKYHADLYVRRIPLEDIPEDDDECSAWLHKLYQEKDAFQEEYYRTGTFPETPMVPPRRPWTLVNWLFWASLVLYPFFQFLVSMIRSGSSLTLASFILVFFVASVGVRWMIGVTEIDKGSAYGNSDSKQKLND", "assay": "Competitive gel-based ABPP in live cells with CL26-alkyne probe", "format": "cell-based", "conditions": "Huh7 cells, AGPAT4 C228A mutation", "procedure": "An in-gel fluorescence assay was performed to investigate the protein targets of CL26. Huh7 cells overexpressing AGPAT4 or cysteine mutants were pre-treated with CL26 at the indicated concentrations for 2 h, followed by CL26-alkyne (1 μM) treatment for another 2 h. Cells were harvested in RIPA buffer supplemented with protease and phosphatase inhibitors (Thermo Fisher Scientific #A32961). The proteins were precipitated by incubation with 6× volume of pre-chilled acetone at −20° C. overnight. Proteins were pelleted by centrifugation at 5000 g for 10 min and resuspended in PBS. The protein content was measured using the BCA assay and normalized to 2 mg/mL. Cell lysates (50 μL) were labelled with azide-fluor 545 by click reaction (final reaction mixture: azide-fluor 545 (25 μM), copper(II) sulfate (1 mM), TBTA (100 μM), and freshly prepared TCEP (1 mM)) at room temperature with constant agitation. After incubation for 1 h, the reaction was quenched with the sampling buffer and boiled at 90° C. for 5 min. Samples were subjected to SDS-PAGE, in-gel fluorescence was captured using ChemiDoc MP (Bio-Rad), and Coomassie Blue staining was performed. Similarly, immunoblotting was used to investigate the protein targets of CL26. Huh7 cells stably transfected with FLAG-AGPAT4 were pre-treated with either the solvent control or CL26 at the indicated concentrations for 2 h, followed by CL26-alkyne (10 μM) treatment for another 2 h. Cells were harvested, and lysates were prepared as described above unless specified. Anti-FLAG M 2 affinity beads were added in FLAG-tag pull-down experiments. After 4 h of incubation at 4° C., the beads were washed with TBS-T and resuspended in TBS-T. Sampling buffer was added and the samples were boiled for protein elution. The samples were subjected to SDS-PAG E and imaged for fluorescence signals before western blot analysis. In the probe pull-down experiment, 1 mL of lysate was labelled with desthiobiotin (DTB)-azide by a click reaction (final reaction mixture: copper(II) sulfate (1 mM), TBTA (100 μM), DTB-PEG-azide (100 μM), and freshly prepared TCEP (1 mM)). […]"}, "[1]": {"system": "AGPAT LPAAT family members (AGPAT1, 2, 3, 4 and 5)", "assay": "Isoform specificity: streptavidin pulldown and immunoblotting of CL26-alkyne-bound proteins", "format": "cell-based, human", "conditions": "Huh7 cells, DTB-PEG-azide, streptavidin pulldown", "procedure": "An in-gel fluorescence assay was performed to investigate the protein targets of CL26. Huh7 cells overexpressing AGPAT4 or cysteine mutants were pre-treated with CL26 at the indicated concentrations for 2 h, followed by CL26-alkyne (1 μM) treatment for another 2 h. Cells were harvested in RIPA buffer supplemented with protease and phosphatase inhibitors (Thermo Fisher Scientific #A32961). The proteins were precipitated by incubation with 6× volume of pre-chilled acetone at −20° C. overnight. Proteins were pelleted by centrifugation at 5000 g for 10 min and resuspended in PBS. The protein content was measured using the BCA assay and normalized to 2 mg/mL. Cell lysates (50 μL) were labelled with azide-fluor 545 by click reaction (final reaction mixture: azide-fluor 545 (25 μM), copper(II) sulfate (1 mM), TBTA (100 μM), and freshly prepared TCEP (1 mM)) at room temperature with constant agitation. After incubation for 1 h, the reaction was quenched with the sampling buffer and boiled at 90° C. for 5 min. Samples were subjected to SDS-PAGE, in-gel fluorescence was captured using ChemiDoc MP (Bio-Rad), and Coomassie Blue staining was performed. Similarly, immunoblotting was used to investigate the protein targets of CL26. […] The samples were subjected to SDS-PAG E and imaged for fluorescence signals before western blot analysis. […]"}, "NRAS+AKT-driven HCC": {"system": "NRAS+AKT-driven HCC", "assay": "NRAS+AKT HTVI HCC mouse model, AAV8-shAgpat4 and sorafenib", "format": "in vivo, C57BL/6 mice", "conditions": "sorafenib alone, control (NTC) group", "procedure": "Six- to eight-week-old male wildtype C57BL/6 mice (Jackson Laboratory) were used in this study. HTVI procedure was carried out as previously described (41, 42). Briefly, 20 μg of plasmids encoding human AKT1 (myristylated AKT1 or myr-AKT1) and human neuroblastoma Ras viral oncogene homolog (N-RasV12) along with sleeping beauty (SB) transposase at a ratio of 25:1 was diluted in 2 ml of saline (0.9% NaCl), filtered through a 0.22 μm filter and injected into the lateral tail vein of C57BL/6 mice in 5-7 s.\nFour weeks after hydrodynamic tail vein injection of proto-oncogenes and SB transposase, the mice were separated into two groups and administered 1×10^11 transducing units of AAV8 virus encoding either shNTC or shAgpat4 in 100 μL PBS via tail vein injection. At 5.5 weeks, mice were administered another dose of the shNTC or shAgpat4 AAV8 virus. Mouse shNTC and mouse shAgpat4 target sequences were cloned into the LV3 vector: 5′-[…] TTTG-3′ (SEQ ID NO:1) and 5′-[…] […]-3′ (SEQ ID NO:2), respectively.\nSorafenib (30 mg/kg/day, delivered orally daily) administration began at 2-3 weeks post HTVI injection, at which point tumors started to develop. Sorafenib treatment lasted for 2.5 weeks, when tumors became non-responsive to the treatment (21). […] Tumor-bearing mice were euthanized at the humane endpoint."}, "HCC [2]": {"system": "HCC", "conditions": "cited from earlier work"}, "HCC [3]": {"system": "HCC", "conditions": "Asian study; cited from earlier work"}, "HCC [4]": {"system": "HCC", "conditions": "cited from earlier work", "remark": "listed apart in the source"}}, "note": "Where two headings read alike, the source gives them in different places.", "data": [{"compound": "CO[C@H]1C[C@@H]2CC[C@@H](C)[C@@](O)(O2)C(=O)C(=O)N2CCCC[C@H]2C(=O)O[C@H]([C@H](C)C[C@@H]2CC[C@@H](OCCO)[C@H](OC)C2)CC(=O)[C@H](C)/C=C(\\C)[C@@H](O)[C@@H](OC)C(=O)[C@H](C)C[C@H](C)/C=C/C=C/C=C/1C", "note": "[everolimus]", "values": [{"measurement": "median progression free survival", "setting": "advanced HCC; 28 patients", "value": 3.8, "unit": "months"}, {"measurement": "overall survival", "setting": "advanced HCC", "value": 8.4, "unit": "months"}]}, {"compound": "sh83: second independent shRNA clone targeting human AGPAT4, printed sh83 in b403 (guide CCGGGUGAUCAUAGAAAGGGUAUUUCUCGAGAAAUACCCUUUCUAUGAUCACUUUUUG)", "values": [{"measurement": "tumors developing extrahepatic metastases in the lung", "setting": "MHCC97L cells", "value": 0}, {"measurement": "tumors formed in the liver", "setting": "MHCC97L cells", "value": "7 of 7"}]}, {"compound": "18:1 phosphatidic acid [PA]", "values": [{"measurement": "self-renewal, migration and invasion capacities", "setting": "HCC cells (Huh7)", "value": "markedly enhanced the self-renewal, migration, and invasion capacities of HCC cells"}]}, {"compound": "C#CCCCN(Cc1ccc(-c2nc3ccccc3s2)o1)C(=O)CCl", "note": "[CL26-alkyne]", "values": [{"measurement": "CL26-alkyne binding to AGPAT4 cysteine mutant (fluorescence signal)", "setting": "AGPAT4", "value": "complete abolishment of the fluorescence signal"}, {"measurement": "specificity for AGPAT4 over other AGPAT LPAAT family members", "setting": "[1]", "value": "AGAPT4 was the only protein bound"}]}, {"compound": "sh82: shRNA clone targeting human AGPAT4, clone ID NM_020133.3 (guide CCGGAUGAUUGGUGUGACGGAAAUUCUCGAGAAUUUCCGUCACACCAAUCAUUUUUUG)", "values": [{"measurement": "tumors developing extrahepatic metastases in the lung", "setting": "MHCC97L cells", "value": 0}, {"measurement": "tumors formed in the liver", "setting": "MHCC97L cells", "value": "5 of 7"}]}, {"compound": "CNC(=O)c1cc(Oc2ccc(NC(=O)Nc3ccc(Cl)c(C(F)(F)F)c3)cc2)ccn1", "note": "[sorafenib]", "values": [{"measurement": "Agpat4 and p-mTOR expression in tumors", "setting": "NRAS+AKT-driven HCC", "value": "increase in Agpat4 and p-mTOR expression"}, {"measurement": "median overall survival", "setting": "HCC [2]; SHARP trial", "value": 10.7, "unit": "months"}, {"measurement": "tolerability", "setting": "HCC [2]; phase III trials", "value": "generally well tolerated"}, {"measurement": "median overall survival", "setting": "HCC [3]", "value": 6.5, "unit": "months"}, {"measurement": "time to radiological progression under treatment", "setting": "HCC [4]; HCC", "value": "4-5 months"}, {"measurement": "expansion of patient median survival", "setting": "HCC [4]; first-line treatment of HCC", "value": "approximately 3 months"}]}]}
